Experimental data published in PMC7920280, “The Multi-Targeting Ligand ST-2223 with Histamine H3 Receptor and Dopamine D2/D3 Receptor Antagonist Properties Mitigates Autism-Like Repetitive Behaviors and Brain Oxidative Stress in Mice” (International Journal of Molecular Sciences, 2021).

Columns and labels:
[1] = tested on: mice with valproic acid (VPA)-induced ASD; conditions: cited from earlier work
[2] = tested on: BTBR and B6 mice; assay: Self-grooming paradigm (SGP); format: in vivo; conditions: BTBR mice; RAM 10 mg/kg i.p. co-administered with ST-2223 5 mg/kg
Protocol: (§1) The drugs tested included ST-2223 [N-(4-(4-(2-methoxyphenyl)piperazin-1-yl)butyl)-6-(3-(piperidin-1-yl)propoxy)-2-naphthamide] that was designed and synthesized in the Institute of Pharmaceutical and Medicinal Chemistry, Heinrich Heine University Düsseldorf, Germany, and in accordance with previously described methodologies (Supplementary Materials). Aripiprazole (ARP) (1 mg/kg, i.p.) and memantine (MEM, 5 mg/kg, i.p.), as reference drugs, were purchased from Sigma-Aldrich (St. Louis, MO, USA). The CNS-penetrant H3R agonist (R)-α-methylhistamine (RAM, 10 mg/kg, i.p.) was purchased from Sigma-Aldrich, St. Louis, MO, USA. T. Protease and the phosphatase inhibitor cocktail were procured from Thermo Scientific, USA. The assay kit for reduced glutathione (GSH) was obtained from Sigma-Aldrich (St. Louis, MO, USA). The lipid peroxidation assay kit for estimation of malondialdehyde (MDA) was purchased from North West Life Science (Vancouver, WA, USA). The assay kits for superoxide dismutase (SOD) and catalase (CAT) were purchased from Cayman Chemical (Ann Arbor, MI, USA). The drugs were prepared daily using 1% dimethyl sulfoxide (DMSO) in 0.9% saline, for intraperitoneal (i.p.) administration at a volume of 10 mL/kg of body weight. Vehicle treatment consisted of 1% DMSO in 0.9% normal saline. All drugs were i.p. administered 30 min before the behavioral test. The doses of these drugs were chosen based on previous reports. Neurobehavioral assessment was performed blindly with respect to experimental group and drug administration.
In the SGP test, mice were scored for spontaneous grooming behaviors. […] To measure SGP, each mouse was placed individually in a standard clear plastic cage (28 cm wide × 17 cm long × 12 cm high) for a total of 20 min. Mice were allowed to freely explore the cage for the entire test, the first 10 min served as a habituation period. After 10 min habituation, each mouse was scored with a stopwatch for 10 min for cumulative time spent grooming all body regions. Grooming behavior included head washing, body grooming, genital/tail grooming and paw and leg licking. The observer sat approximately 1 m from the test cage during the second 10 min of testing.

[3] = tested on: BTBR and B6 mice; assay: Marble burying task (MBT); format: in vivo; conditions: BTBR mice
Protocol: as §1
The MBT is used for testing repetitive and compulsive behaviors as it accurately reflects repetitive digging behavior [95, 96]. The test was performed as described previously, with slight modifications. Briefly, cages (26 cm × 48 cm × 20 cm) were filled with fresh, unscented mouse bedding material to a depth of 5 cm, on top of which 20 marbles were placed in 4 rows of 5 marbles each (15 mm diameter). Before placing the marbles, the bedding surface was leveled by placing another cage of the same size onto the surface of the bedding and then each mouse was individually added for 10 min habituation. After habituation, the mouse was removed, and the marbles were carefully overlaid. The same mouse was then returned to its designated test cage and allowed to explore for 30 min. The total number of marbles buried (>50% marble covered by the bedding material) was determined at the end of the session.

[4] = tested on: BTBR and B6 mice; assay: Open field test (OFT): locomotor activity and anxiety levels; format: in vivo; conditions: BTBR mice
Protocol: as §1
The open field test (OFT) systematically evaluates exploration behaviors executed in a novel open field (considered as a novel environment), as an independent control for the effects of the drugs on physical activity that could confound the interpretation of the results from the self-grooming, anxiety and spontaneous alternation. Mice were allowed to freely explore an open-field arena (45 × 45 × 30 cm), to assess general locomotor activity, and anxiety-related behaviors. The center arena was defined as the central 23 × 23 cm area. Mice were given 5 min to habituate in the center area of the arena before the recording started for the actual behavioral assessments. Recording lasted for 10 min using charge-coupled device (CCD) camera-assisted motion tracking apparatus and software (EthoVision 3.1, Noldus Information Technology, The Netherlands), and the total distance moved in the whole arena, time spent in the center and periphery were recorded. Test chambers were cleaned with 70% ethanol after each trial and were allowed to dry until ethanol evaporation and odor dissipation had occurred. When interpreting the results observed in this assessment, less time spent in the center was considered as an indicator for high levels of anxiety-like behaviors and total distance travelled signified the overall locomotor activity of tested animals.

[5] = tested on: BTBR and B6 mice; assay: Spontaneous alternation behavior (SAB), Y maze; format: in vivo; conditions: BTBR mice; RAM 10 mg/kg i.p. co-administered with ST-2223 5 mg/kg
Protocol: as §1
The SAB test is based on the exploratory strategy of rodents to explore a new environment. In examining repetitive behaviors, the Y maze test took advantage of the rodents’ natural tendency to spontaneously alternate or choose a different arm of the maze instead of the one they visited on their previous entry (i.e., least recently visited arm). A decrease in the percentage alternation can also be attributed to same arm repeated visits. Spontaneous alternation behavior was measured on a Y maze apparatus, as previously described, with slight modifications. The Y maze composed of three arms (30 cm × 6 cm × 15 cm), where the arms were labeled with letters: A, B, or C. The test mouse was placed in the center of the maze and was allowed to freely explore the maze for 8 min. The number of entries into each arm and the total number of entries were recorded by the observer. A spontaneous alternation was defined as successive entry into three arms on an overlapping triplet set. Percentage spontaneous alternation was calculated as the number of spontaneous alternations (actual alternations) over the total number of entries (possible alternations). Two arm entries were subtracted from the denominator because an alternation required at least 3 entries. The apparatus was cleaned with 70% alcohol solution after each mouse was tested. (1) Percentage spontaneous alternations=Total alternations/(Total arm entries − 2) ×100

[6] = tested on: oxidative stress markers (e.g., MDA and GSH); set-up: method as in PMID 27833522, PMID 27089413, PMID 22331799; conditions: amphetamine- or dizocilpine-augmented oxidative stress, mouse model of schizophrenia; cited from earlier work
[7] = tested on: mice sensitized with PCP; conditions: acute low dose of PCP in mice sensitized by repeated high-dose PCP; cited from earlier work
[8] = RAM 10 mg/kg i.p. co-administered with ST-2223 5 mg/kg

CCC(C)(C)c1ccc(OCCCN2CCCCC2)cc1 [DL77]
percentage of marbles buried ([1]; adult male Tuck-Ordinary mice with VPA-induced ASD features, subchronic 5, 10, 15 mg/kg, i.p.): significant and dose-dependent

C[C@@H](N)Cc1c[nH]cn1 [RAM, (R)-α-methylhistamine]
effect of co-administration on the ST-2223 (5 mg)-induced decrease in time spent self-grooming [2]: nullified | marble burying behavior vs saline-treated BTBR mice, given alone ([3]; RAM 10 mg/kg i.p. alone): did not alter | effect of co-administration on the ST-2223 (5 mg)-stimulated decrease in percentage of buried marbles [3, 8]: reversed | time spent in the center (OFT) vs saline-treated BTBR mice, given alone ([4]; RAM 10 mg/kg i.p. alone): did not induce any alternation | effect of co-administration on the ST-2223 (5 mg)-induced increase in time spent in the center (OFT) [4, 8]: not reversed | effect of co-administration on the ST-2223 (5 mg)-induced enhancement in alternation [5]: entirely reversed

O=C(c1ccc(OCCCc2cnc[nH]2)cc1)C1CC1 [ciproxifan]
repetitive behavior in the MBT ([1]; mice with VPA-induced ASD): reduced repetitive behavior | oxidative stress markers (e.g., MDA and GSH) [6]: mitigated

CN1CCCC1CCNS(=O)(=O)c1ccc2c(c1)CN(CC1CCCCC1)CC2 (centres unmarked) [SAR110894]
deficit in working memory in the Y maze test [7]: reversed

NC(=NCc1ccc(Cl)cc1)SCCCc1cnc[nH]1 [clobenpropit]
oxidative stress markers (e.g., MDA and GSH) [6]: mitigated
